Tests used:
Male rats = assay: Toxicologic profile in rats (clinical pathology, necropsy, histopathology); conditions: 24 h after 15 minute IV infusion, infusion site, lung, liver, kidney
[1] = test system: mouse whole blood (male), red blood cells; assay: In vitro hemolysis test, mouse blood; conditions: mouse whole unclotted blood, concentrations tested, 15 min at 37° C.
Protocol: (§1) APAP and GBP alone or in combination were evaluated in the in vitro hemolysis test using four biologic matrices (mouse, rat, dog and human whole unclotted blood) to determine the hemolytic potential for each on red blood cells.

[2] = test system: rat whole blood (male), red blood cells; assay: In vitro hemolysis test, rat blood; conditions: rat whole unclotted blood, concentrations tested, 15 min at 37° C.
Protocol: as §1

[3] = test system: human (pooled) whole blood, red blood cells; assay: In vitro hemolysis test, human blood; conditions: human whole unclotted blood, concentrations tested, 15 min at 37° C.
Protocol: as §1

Male ICR mice = assay: Mouse RotoRod/Acelerorod test; conditions: 15 minute IV infusion, 10 mg Acetaminophen/mL, 8 mg Gabapentin/mL, 1, 2, 4, 6 h
Protocol: Mouse tail flick test was conducted to evaluate test somatic pain and mouse rotorod/acelorod test evaluated behavioral changes, specifically somnolence or dizziness
In each case a positive control was administered as described below.
Male ICR mice were trained on a RotoRod/Acelerod at a continuous accelerating speed from 4 to 30 rpm/min during a time period of 4 minutes for at least 3 times on day 0. Vehicle or test article at a single dose is administered by intravenous infusion over 15 minutes starting 30 minutes before the test period starts and chlorpromazine (30 mg/kg, PO) was administered by oral gavage 60 minutes before the start of the test period. At 1, 2, 4, and 6 hours after the start of the test the mice are placed on the accelerating rotorod (increasing from 4 to 30 rpm/min during a 4 min period) and the time (seconds) the mouse remained on the rotorod was recorded. One-way ANOVA followed by Dunnett's test is applied for comparison between vehicle control and test article groups. P<0.05 is considered significant.
A baseline was measured before administration of the test agents and at 1, 2, 4 and 6 h post the start of the study. The effect of the compounds was evaluated in the standard RotoRod/Acelerorod test.

[4] = oral; cited from earlier work
[5] = test system: beagle dog whole blood (male), red blood cells; assay: In vitro hemolysis test, dog blood; conditions: dog whole unclotted blood, concentrations tested, 15 min at 37° C.
Protocol: as §1

[6] = Stability of GBP in presence of different stabilizers and solvents; type: physicochemical; conditions: GBP 9 mg/mL in acetate buffer, PVP 10 mg/mL
Protocol: GBP containing formulations were prepared by dissolving GBP to a concentration of 9 mg/mL in acetate buffer. A first set of samples were tested for assay and impurities after the initial preparation of formulation, Another set of samples were steam sterilized at 121° C. for 15 min and were tested for assay and impurity levels.

[7] = Koshy et al; cited from earlier work

Row | Compound | histopathology compared to the vehicle control (Male rats) | Interpretation of hemolysis [1] | Interpretation of hemolysis [2] | Interpretation of hemolysis [3] | motor control (time on rotorod) compared to the vehicle control (Male ICR mice) | Plasma concentrations versus dose [4] | Interpretation of hemolysis [5] | stability of GBP with stabilizer [6] | pH range in which hydrolysis of APAP is minimum [7]
1 | 1-(aminomethyl) cyclohexane acetic acid [Gabapentin] | no changes in the histopathology in any tissue sampled | not considered to be hemolytic | not considered to be hemolytic | not considered to be hemolytic | no statistically significant decrease in motor control | proportional with dose up to 1800 mg daily and then plateau at approximately 3600 mg daily | not considered to be hemolytic | more stable | –
2 | CC(=O)Nc1ccc(O)cc1 [Acetaminophen, acetaminophen] | – | not considered to be hemolytic | not considered to be hemolytic | not considered to be hemolytic | no statistically significant decrease in motor control | – | not considered to be hemolytic | – | 5-7

Reference: patent publication US10874626B2, “Formulation for use in a method of treatment of pain” (NEVAKAR Inc., priority 2016, dated 2020)
